Experimental data reported in patent US20220213144A1, “HALOGENATED ANTIMICROBIAL PEPTOIDS” (priority 2019, published 2022).
In brackets after ≈: the same amount, converted by molar mass. Where two headings read alike, the source gives them in different places. Square brackets hold non-standard residues; d marks the D form. Peptide text beside a SMILES is read from it. N(4-Br-benzyl)Gly = O=C(O)CNCc1ccc(Br)cc1; NBzl(4-I)Gly = O=C(O)CNCc1ccc(I)cc1; Nspe = C[C@H](NCC(=O)O)c1ccccc1; Nphe = O=C(O)CNCc1ccccc1; Nlys = NCCCCNCC(=O)O

Key:
[1] = system: seven bacterial strains; assay: MIC by broth microdilution, whole panel of bacterial strains; format: cell-based; settings: in words
Description: All 36 peptoids were tested against seven bacterial strains. These included five Gram-positive strains (Staphylococcus aureus ATCC 25923 and ATCC 29213, methicillin-resistant Staphylococcus aureus USA 300, methicillin-restant Staphylococcus epidermidis ET-024 and ATCC 51625) and two Gram-negative strains (Escherichia coli ATCC 25922 and Pseudomonas aeruginosa PA01) (see TABLE 1).
(§1) Bacterial growth inhibition was determined by using broth microdilution according to the Clinical Laboratory Standards Institute. The antibacterial activity of peptoids was tested against S. aureus ATCC 25923, ATCC29213, and methicillin resistant S. aureus USA 300, methicillin resistant S. epidermidis ATCC 51625, a biofilm producing methicillin resistant S. epidermidis […], P. aeruginosa Pa01 (H103), and E. coli ATCC 25922. Bacteria, grown on agar plates for 18 hours at 37° C., were diluted to ˜1×10^8 CFU/mL in Mueller-Hinton Broth II (MHB II). Twofold serial dilutions of peptoids in MHB II were inoculated with the bacteria to achieve a final concentration of 5×10^5 CFU/mL in polypropylene 96 U-well microtiter plates (Corning™ 3897; ThermoFisher Scientific, Roskilde), followed by incubation at 37° C. in ambient air for 18 hours. The MIC values were determined as the lowest concentration showing no visible bacterial growth. Experiments were performed twice (in technical triplicates) on different days.

[2] = system: methicillin-restant S. epidermidis ATCC 51625; format: cell-based, Staphylococcus epidermidis; settings: for MIC against MRSE: text b77, 6-mers, strain not named, values fit ATCC 51625; for MIC MRSE^d: S. epidermidis ATCC 51625
Description: as §1

[3] = system: S. aureus ATCC 25923; format: cell-based, Staphylococcus aureus; settings: for increase in activity against S. aureus: compared to the unsubstituted control peptoid of same length; for MIC against S. aureus: strain not named; for MIC SA^a: S. aureus ATCC 25923
Description: as §1

[4] = Small angle X-ray scattering, critical aggregation concentration from fit; format: physicochemical; settings: for critical aggregation concentration (CAC): SAXS fit analysis, bundle model
Description: SAXS experiments of the 10-mer peptoids were performed on the automated BM29 bioSAXS beamline at the European Synchrotron Radiation Facility (ESRF) in Grenoble, France. The data was obtained using an energy of 12.5 keV and a detector distance of 2.87 m, covering a q range (q=4π sin(θ/2)/λ), where θ is the scattering angle and λ is the X-ray wavelength) of about 0.0047 Å-1 to 0.5 Å-1. The data set was calibrated to an absolute intensity scale using water as a primary standard. Samples (40 μL) were run through a capillary using the flow mode of the automated sample changer. SAXS data was collected in ten successive frames of 0.5 s each to monitor radiation damage, and the data reduction was done using the standard tool at BM29.
The SAXS experiments on the fully iodinated 6-, 8-, and 12-mers to determine the CAC of the compounds were performed using a Bruker NANOSTAR equipped with a microfocus X-ray source (IμS Cu, Incoatec, Germany) and a VANTEC-2000 detector. Raw scattering data was calibrated to absolute intensity scale using water as a primary standard and radially averaged in order to obtain the 1D scattered intensity profile as a function of the scattering vector, with a wavelength of 1.54 Å.
where fagg is the fraction of peptoid chains aggregated in bundles, allowing for calculation of a CAC from ϕCAC=ϕ−(fagg*ϕ).

[5] = system: methicillin-restant S. epidermidis ET-024; format: cell-based, Staphylococcus epidermidis; settings: for MIC against MRSE: strain not named; for increase in activity against MRSE: 8-mer and 10-mer, compared to unsubstituted controls 10 and 19; for MIC MRSE^c: S. epidermidis ET-024
Description: as §1

[6] = system: S. aureus and S. epidermidis; format: cell-based, Staphylococcus aureus, Staphylococcus epidermidis; settings: span over the Gram-positive strains
Description: as §1

[7] = system: P. aeruginosa PA01; format: cell-based, Pseudomonas aeruginosa; settings: P. aeruginosa PA01 H103
Description: as §1

[8] = system: E. coli ATCC 25922; format: cell-based, Escherichia coli
Description: as §1

[9] = in words; cited from earlier work
[10] = intraperitoneal; Czyzewski et al. 2016; cited from earlier work
[11] = system: methicillin-resistant S. aureus USA 300; format: cell-based, Staphylococcus aureus
Description: as §1

[12] = Cell viability assay (MTS/PMS), HaCaT cell line; format: cell-based; settings: human, text b151, read-out: IC50 (cytotoxicity, HaCaT)
Description: An immortalized human keratinocytes (HaCaT) cell line (Gift from David Gram Naym at Bispebjerg Hospital) was cultured to ˜90% confluence after 21-25 h of growth under standard conditions (5% CO2/95% 02 at 37° C.). Cells were cultured in Dulbecco's Modified Eagle's Medium supplemented with 10% (v/v) fetal bovine serum (FBS). All culture media were supplemented with penicillin (100 IU/mL) and streptomycin (100 μg/mL). All cell media and supplements were obtained from Sigma-Aldrich (St. Louis, Mo., United States). The 96-well plates were obtained from Corning Costar (Sigma-Aldrich, Brondby, Denmark).
Cell viability assessment was performed on cell monolayers grown to ˜90% confluence in 96-well plates using the MTS/PMS assay as previously described. Briefly, the adhered cells were washed with 37° C. PBS solution (ThermoFisher Scientific, Roskilde) and exposed for 1 h at 37° C. to 100 μL of peptoid dissolved in the medium also used for culturing of the cell line (at concentrations in the range 0-1000 μg/mL). The cells were then washed twice with 37° C. PBS. […] A plate reader (SpectraMax i3X; Molecular devices, San Jose, Calif.) was used to measure the absorbance at 492 nm. The relative viability was calculated by using 0.2% (w/v) sodium dodecyl sulfate (SDS) as the positive control, while cells exposed to medium without test compound were used as the negative control. […]

[13] = Table 3, fully iodinated peptoids, bundle model fit
[14] = 8-mers and 10-mers, values fit ET-024
[15] = Table 2, 10-mers, SAXS at ESRF, model fit

NCCCCNCC(=O)N(CC(=O)N(CCCCN)CC(=O)N(CC(=O)N(CCCCN)CC(=O)N(CC(N)=O)Cc1ccccc1)Cc1ccccc1)Cc1ccccc1 [Compound 1] (H-[Nlys][Nphe][Nlys][Nphe][Nlys][Nphe]-NH2; N-terminus assumed)
potency against the selected bacterial strains [1]: inactive
MIC against MRSE [2]: 512 µg/mL (≈ 607 µM)

NCCCCNCC(=O)N(CC(=O)N(CCCCN)CC(=O)N(CC(=O)N(CCCCN)CC(=O)N(CC(N)=O)Cc1ccc(I)cc1)Cc1ccc(I)cc1)Cc1ccc(I)cc1 [Compound 5] (H-[Nlys][NBzl(4-I)Gly][Nlys][NBzl(4-I)Gly][Nlys][NBzl(4-I)Gly]-NH2; N-terminus assumed)
increase in activity against S. aureus [3]: more than 64 fold
MIC against S. aureus [3]: 8 µg/mL (≈ 6.55 µM)
critical aggregation concentration (CAC) [4]: 2.8 mg/mL
CAC [4, 13]: 2.8 mg/mL
increase in activity against MRSE ([2]; 6-mer, compared to unsubstituted control 1): 256 fold
MIC against MRSE [2]: 2 µg/mL (≈ 1.64 µM)

NCCCCNCC(=O)N(CC(=O)N(CCCCN)CC(=O)N(CC(=O)N(CCCCN)CC(=O)N(CC(=O)N(CCCCN)CC(=O)N(CC(N)=O)Cc1ccccc1)Cc1ccccc1)Cc1ccccc1)Cc1ccccc1 [Compound 10] (H-[Nlys][Nphe][Nlys][Nphe][Nlys][Nphe][Nlys][Nphe]-NH2; N-terminus assumed)
potency against the selected bacterial strains [1]: inactive
MIC against MRSE [5, 14]: 256 µg/mL (≈ 229 µM)

NCCCCNCC(=O)N(CC(=O)N(CCCCN)CC(=O)N(CC(=O)N(CCCCN)CC(=O)N(CC(=O)N(CCCCN)CC(=O)N(CC(N)=O)Cc1ccc(I)cc1)Cc1ccc(I)cc1)Cc1ccc(I)cc1)Cc1ccc(I)cc1 [Compound 14] (H-[Nlys][NBzl(4-I)Gly][Nlys][NBzl(4-I)Gly][Nlys][NBzl(4-I)Gly][Nlys][NBzl(4-I)Gly]-NH2; N-terminus assumed)
critical aggregation concentration (CAC) [4]: 1.4 mg/mL
CAC [4, 13]: 1.4 mg/mL
increase in activity against MRSE [5]: 128 fold
MIC against MRSE [5]: 2 µg/mL (≈ 1.23 µM)

NCCCCNCC(=O)N(CC(=O)N(CCCCN)CC(=O)N(CC(=O)N(CCCCN)CC(=O)N(CC(=O)N(CCCCN)CC(=O)N(CC(=O)N(CCCCN)CC(=O)N(CC(N)=O)Cc1ccccc1)Cc1ccccc1)Cc1ccccc1)Cc1ccccc1)Cc1ccccc1 [Compound 19] (H-[Nlys][Nphe][Nlys][Nphe][Nlys][Nphe][Nlys][Nphe][Nlys][Nphe]-NH2; N-terminus assumed)
potency against the selected bacterial strains [1]: inactive
CAC [4, 15]: >5 mg/mL
MIC against MRSE [5, 14]: 128 µg/mL (≈ 91.8 µM)

NCCCCNCC(=O)N(CC(=O)N(CCCCN)CC(=O)N(CC(=O)N(CCCCN)CC(=O)N(CC(=O)N(CCCCN)CC(=O)N(CC(=O)N(CCCCN)CC(=O)N(CC(N)=O)Cc1ccc(Br)cc1)Cc1ccc(Br)cc1)Cc1ccc(Br)cc1)Cc1ccc(Br)cc1)Cc1ccc(Br)cc1 [Compound 22] (H-[Nlys][N(4-Br-benzyl)Gly][Nlys][N(4-Br-benzyl)Gly][Nlys][N(4-Br-benzyl)Gly][Nlys][N(4-Br-benzyl)Gly][Nlys][N(4-Br-benzyl)Gly]-NH2; N-terminus assumed)
increase in activity against S. aureus [3]: > 256 fold
MIC against S. aureus [3]: 2 µg/mL (≈ 1.12 µM)
critical aggregation concentration (CAC) [4]: 2.3 mg/mL
CAC [4, 15]: 2.3 mg/mL
increase in activity against MRSE [5]: 128 fold
MIC against MRSE [5, 14]: 1 µg/mL (≈ 0.559 µM)

NCCCCNCC(=O)N(CC(=O)N(CCCCN)CC(=O)N(CC(=O)N(CCCCN)CC(=O)N(CC(=O)N(CCCCN)CC(=O)N(CC(=O)N(CCCCN)CC(=O)N(CC(N)=O)Cc1ccc(Br)cc1)Cc1ccccc1)Cc1ccc(Br)cc1)Cc1ccccc1)Cc1ccc(Br)cc1 [Compound 26] (H-[Nlys][N(4-Br-benzyl)Gly][Nlys][Nphe][Nlys][N(4-Br-benzyl)Gly][Nlys][Nphe][Nlys][N(4-Br-benzyl)Gly]-NH2)
MICs [6]: 1 to 8 µg/mL
CAC [4, 15]: >5 mg/mL

NCCCCNCC(=O)N(CC(=O)N(CCCCN)CC(=O)N(CC(=O)N(CCCCN)CC(=O)N(CC(=O)N(CCCCN)CC(=O)N(CC(=O)N(CCCCN)CC(=O)N(CC(=O)N(CCCCN)CC(=O)N(CC(N)=O)Cc1ccccc1)Cc1ccccc1)Cc1ccccc1)Cc1ccccc1)Cc1ccccc1)Cc1ccccc1 [Compound 28] (H-[Nlys][Nphe][Nlys][Nphe][Nlys][Nphe][Nlys][Nphe][Nlys][Nphe][Nlys][Nphe]-NH2; N-terminus assumed)
potency against the selected bacterial strains [1]: inactive

C[C@@H](c1ccccc1)N(CC(N)=O)C(=O)CN(C(=O)CN(CCCCN)C(=O)CN(C(=O)CN(C(=O)CN(CCCCN)C(=O)CN(C(=O)CN(C(=O)CN(CCCCN)C(=O)CN(C(=O)CN(C(=O)CNCCCCN)[C@@H](C)c1ccccc1)[C@@H](C)c1ccccc1)[C@@H](C)c1ccccc1)[C@@H](C)c1ccccc1)[C@@H](C)c1ccccc1)[C@@H](C)c1ccccc1)[C@@H](C)c1ccccc1 [Peptoid 1, H-(NLys-Nspe-Nspe)4-NH2] (H-[Nlys][Nspe][Nspe][Nlys][Nspe][Nspe][Nlys][Nspe][Nspe][Nlys][Nspe][Nspe]-NH2)
MIC PA^f ([7]; Table 4): 16 µg/mL (≈ 8.79 µM)
MIC PA^f ([7]; Table 5): 16 µg/mL (≈ 8.79 µM)
MIC EC^e ([8]; Table 4): 8 µg/mL (≈ 4.4 µM)
MIC EC^e ([8]; Table 5): 8 µg/mL (≈ 4.4 µM)
cytotoxicity in vitro [9]: relatively high cytotoxicity
tolerability intraperitoneally in vivo [10]: reasonably well tolerated
MIC MRSA^b ([11]; Table 4): 8 µg/mL (≈ 4.4 µM)
MIC MRSA^b ([11]; Table 5): 8 µg/mL (≈ 4.4 µM)
MIC SA^a ([3]; Table 4): 8 µg/mL (≈ 4.4 µM)
MIC SA^a ([3]; Table 5): 8 µg/mL (≈ 4.4 µM)
IC50 at 1 h [12]: 35 µg/mL (≈ 19.2 µM)
MIC MRSE^c ([5]; Table 4): 4 µg/mL (≈ 2.2 µM)
MIC MRSE^c ([5]; Table 5): 4 µg/mL (≈ 2.2 µM)
MIC MRSE^d ([2]; Table 4): 8 µg/mL (≈ 4.4 µM)
MIC MRSE^d ([2]; Table 5): 8 µg/mL (≈ 4.4 µM)
